Measured values taken from patent US20230310428A1, “EGFR INHIBITOR AND PREPARATION METHOD AND USE THEREOF” (HONGYUN BIOTECH CO., LTD., priority 2020, published 2023).

Assays:
Assay in all cases: Growth inhibitory activity of compounds on BaF3 cell lines stably transfected with kinase (MTS, 48 h)
Assay type in all cases: cell-based
[1] = target: T1, various mutants of kinase EGFR (BaF3 cell lines stably transfected with kinase) (Homo sapiens, UniProt P00533); settings: BaF3 cells stably transfected with EGFR Δ19Del, read-out: IC50, growth inhibition, Δ19Del
T1 construct: other: BaF3 cells stably transfected with EGFR Δ19Del; MTS, 48 h; other: BaF3 cell line stably transfected with EGFR Δ19Del
In short: (§1)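 Cells in DMEM or RPMI 1640 with 10% FBS were exposed to compound at 8 concentrations (top 10 µM, 1/3 steps, 0.1% DMSO) for 48 h at 37 °C, 5% CO2. MTS/PES was then added for 1-4 h and OD490 read; IC50 was fitted from growth inhibition versus 0.1% DMSO control.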

[2] = target: T2, various mutants of kinase EGFR (BaF3 cell lines stably transfected with kinase) (Homo sapiens, UniProt P00533, C797S/L858R/T790M); settings: BaF3 cells stably transfected with EGFR L858R/T790M/C797S, read-out: IC50, growth inhibition, L858R/T790M/C797S
T2 construct: expressed in transfected cells; host or cells: BaF3
In short: as §1

[3] = target: T3, various mutants of kinase EGFR (BaF3 cell lines stably transfected with kinase) (Homo sapiens, UniProt P00533, L858R); settings: BaF3 cells stably transfected with EGFR L858R, read-out: IC50, growth inhibition, L858R
T3 construct: expressed in transfected cells; host or cells: BaF3
In short: as §1

[4] = target: T4, various mutants of kinase EGFR (BaF3 cell lines stably transfected with kinase) (Homo sapiens, UniProt P00533, L858R/T790M); settings: BaF3 cells stably transfected with EGFR L858R/T790M, read-out: IC50, growth inhibition, L858R/T790M
T4 construct: expressed in transfected cells; host or cells: BaF3
In short: as §1

[5] = target: T5, various mutants of kinase EGFR (BaF3 cell lines stably transfected with kinase) (Homo sapiens, UniProt P00533, T790M/C797S, form not given); settings: BaF3 cells stably transfected with EGFR Δ19Del/T790M/C797S, read-out: IC50, growth inhibition, Δ19Del/T790M/C797S
T5 construct: other: BaF3 cells stably transfected with EGFR Δ19Del/T790M/C797S; MTS, 48; other: BaF3 cell line stably transfected with EGFR Δ19Del/T790M/C7
In short: as §1

[6] = target: T6, various mutants of kinase EGFR (BaF3 cell lines stably transfected with kinase) (Homo sapiens, UniProt P00533, T790M, form not given); settings: BaF3 cells stably transfected with EGFR Δ19Del/T790M, read-out: IC50, growth inhibition, Δ19Del/T790M
T6 construct: other: BaF3 cells stably transfected with EGFR Δ19Del/T790M; MTS, 48 h; other: BaF3 cell line stably transfected with EGFR Δ19Del/T790M; MTS, 48
In short: as §1

T5 sequence (P00533 with tags, fused parts or gaps DEL746-750/T790M/C797S, form open): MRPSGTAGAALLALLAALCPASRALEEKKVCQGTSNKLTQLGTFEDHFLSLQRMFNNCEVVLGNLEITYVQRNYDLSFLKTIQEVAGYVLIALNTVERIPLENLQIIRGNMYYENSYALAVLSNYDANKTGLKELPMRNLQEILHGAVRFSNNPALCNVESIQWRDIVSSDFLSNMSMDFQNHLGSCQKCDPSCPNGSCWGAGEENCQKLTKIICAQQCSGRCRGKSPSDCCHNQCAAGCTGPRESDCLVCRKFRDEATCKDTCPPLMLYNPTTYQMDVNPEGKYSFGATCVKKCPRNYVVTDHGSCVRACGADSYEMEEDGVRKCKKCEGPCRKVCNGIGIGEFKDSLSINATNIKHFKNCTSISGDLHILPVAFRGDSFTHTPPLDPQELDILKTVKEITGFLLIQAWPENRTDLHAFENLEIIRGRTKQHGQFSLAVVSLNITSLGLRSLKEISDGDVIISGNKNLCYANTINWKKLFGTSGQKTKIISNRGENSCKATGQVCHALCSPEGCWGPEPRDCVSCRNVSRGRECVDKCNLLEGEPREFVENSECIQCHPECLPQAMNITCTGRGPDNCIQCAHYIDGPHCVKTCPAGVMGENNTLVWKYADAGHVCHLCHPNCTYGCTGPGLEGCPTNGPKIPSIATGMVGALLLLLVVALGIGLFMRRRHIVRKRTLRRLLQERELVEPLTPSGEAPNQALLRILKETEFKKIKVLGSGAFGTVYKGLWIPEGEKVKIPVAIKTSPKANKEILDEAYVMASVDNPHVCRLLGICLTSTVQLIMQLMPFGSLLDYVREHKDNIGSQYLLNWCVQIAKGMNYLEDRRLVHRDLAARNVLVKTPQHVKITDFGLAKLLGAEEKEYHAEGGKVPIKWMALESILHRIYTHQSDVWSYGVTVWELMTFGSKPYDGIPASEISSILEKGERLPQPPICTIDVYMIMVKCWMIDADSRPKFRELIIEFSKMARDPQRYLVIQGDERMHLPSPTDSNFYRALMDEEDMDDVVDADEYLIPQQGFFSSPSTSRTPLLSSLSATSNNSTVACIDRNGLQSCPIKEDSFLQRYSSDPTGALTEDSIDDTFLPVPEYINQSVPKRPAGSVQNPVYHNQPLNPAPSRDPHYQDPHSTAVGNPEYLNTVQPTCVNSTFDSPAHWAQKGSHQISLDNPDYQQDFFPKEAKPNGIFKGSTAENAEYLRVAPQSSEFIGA
T1 sequence (P00533 with tags, fused parts or gaps DEL746-750): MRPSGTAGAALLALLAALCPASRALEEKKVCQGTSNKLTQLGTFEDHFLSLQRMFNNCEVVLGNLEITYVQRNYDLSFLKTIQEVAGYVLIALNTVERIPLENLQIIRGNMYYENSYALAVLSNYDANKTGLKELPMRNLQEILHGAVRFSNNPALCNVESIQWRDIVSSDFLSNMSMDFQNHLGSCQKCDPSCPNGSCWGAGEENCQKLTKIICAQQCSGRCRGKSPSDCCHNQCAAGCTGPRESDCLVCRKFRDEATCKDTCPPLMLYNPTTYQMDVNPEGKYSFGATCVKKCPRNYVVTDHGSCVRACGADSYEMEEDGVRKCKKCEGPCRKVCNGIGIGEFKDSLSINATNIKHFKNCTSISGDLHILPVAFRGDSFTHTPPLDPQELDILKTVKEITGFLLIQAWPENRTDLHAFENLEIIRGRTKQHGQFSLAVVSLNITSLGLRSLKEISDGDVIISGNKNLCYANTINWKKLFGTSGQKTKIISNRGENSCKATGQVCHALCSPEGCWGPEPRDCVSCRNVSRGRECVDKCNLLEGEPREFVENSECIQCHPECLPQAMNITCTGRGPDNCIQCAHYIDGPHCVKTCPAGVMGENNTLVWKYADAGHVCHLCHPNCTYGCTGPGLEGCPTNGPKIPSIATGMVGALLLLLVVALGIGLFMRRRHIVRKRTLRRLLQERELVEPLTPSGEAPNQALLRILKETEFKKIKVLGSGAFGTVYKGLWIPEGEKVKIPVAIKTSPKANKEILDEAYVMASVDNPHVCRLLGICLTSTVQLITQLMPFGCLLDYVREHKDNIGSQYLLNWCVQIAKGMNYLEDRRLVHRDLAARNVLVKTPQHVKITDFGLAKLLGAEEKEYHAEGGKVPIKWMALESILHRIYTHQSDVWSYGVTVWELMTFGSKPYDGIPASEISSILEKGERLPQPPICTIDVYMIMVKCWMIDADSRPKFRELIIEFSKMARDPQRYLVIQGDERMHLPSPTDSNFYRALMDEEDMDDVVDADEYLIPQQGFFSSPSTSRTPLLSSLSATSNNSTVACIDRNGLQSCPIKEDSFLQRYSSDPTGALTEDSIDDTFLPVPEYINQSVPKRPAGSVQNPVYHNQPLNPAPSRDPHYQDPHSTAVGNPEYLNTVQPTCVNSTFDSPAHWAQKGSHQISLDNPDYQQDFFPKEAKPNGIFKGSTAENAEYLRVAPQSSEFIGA
T3 sequence (P00533 25-1210 L858R): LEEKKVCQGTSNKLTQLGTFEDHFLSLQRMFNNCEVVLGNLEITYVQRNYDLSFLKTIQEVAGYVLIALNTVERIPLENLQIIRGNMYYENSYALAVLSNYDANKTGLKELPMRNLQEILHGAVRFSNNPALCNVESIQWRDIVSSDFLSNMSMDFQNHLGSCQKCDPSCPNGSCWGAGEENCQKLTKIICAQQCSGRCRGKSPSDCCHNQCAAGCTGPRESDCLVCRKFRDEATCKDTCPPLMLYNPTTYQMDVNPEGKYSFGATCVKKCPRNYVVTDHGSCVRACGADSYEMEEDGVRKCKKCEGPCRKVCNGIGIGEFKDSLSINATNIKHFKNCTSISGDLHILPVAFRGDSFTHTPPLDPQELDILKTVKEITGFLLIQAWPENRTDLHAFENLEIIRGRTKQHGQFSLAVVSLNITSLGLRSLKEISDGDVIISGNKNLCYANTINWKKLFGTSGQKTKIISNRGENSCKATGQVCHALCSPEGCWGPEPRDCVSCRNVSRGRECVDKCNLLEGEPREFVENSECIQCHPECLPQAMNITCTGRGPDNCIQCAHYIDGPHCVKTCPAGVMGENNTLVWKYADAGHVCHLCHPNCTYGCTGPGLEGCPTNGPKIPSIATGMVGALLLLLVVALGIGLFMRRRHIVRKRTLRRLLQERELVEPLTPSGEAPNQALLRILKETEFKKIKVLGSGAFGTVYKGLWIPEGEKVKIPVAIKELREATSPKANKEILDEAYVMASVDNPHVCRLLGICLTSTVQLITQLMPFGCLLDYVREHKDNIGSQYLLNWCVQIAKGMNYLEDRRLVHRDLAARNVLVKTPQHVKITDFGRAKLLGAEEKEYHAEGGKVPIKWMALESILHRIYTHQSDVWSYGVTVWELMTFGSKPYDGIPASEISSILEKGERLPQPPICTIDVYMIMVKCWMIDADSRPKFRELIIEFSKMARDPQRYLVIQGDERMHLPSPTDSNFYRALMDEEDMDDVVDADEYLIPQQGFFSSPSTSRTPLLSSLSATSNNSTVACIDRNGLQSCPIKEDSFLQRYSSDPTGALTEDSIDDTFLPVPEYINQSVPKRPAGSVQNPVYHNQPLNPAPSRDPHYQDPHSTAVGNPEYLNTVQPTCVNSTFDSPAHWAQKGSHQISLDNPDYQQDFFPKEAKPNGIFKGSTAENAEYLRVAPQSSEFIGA
T4 sequence (P00533 25-1210 T790M/L858R): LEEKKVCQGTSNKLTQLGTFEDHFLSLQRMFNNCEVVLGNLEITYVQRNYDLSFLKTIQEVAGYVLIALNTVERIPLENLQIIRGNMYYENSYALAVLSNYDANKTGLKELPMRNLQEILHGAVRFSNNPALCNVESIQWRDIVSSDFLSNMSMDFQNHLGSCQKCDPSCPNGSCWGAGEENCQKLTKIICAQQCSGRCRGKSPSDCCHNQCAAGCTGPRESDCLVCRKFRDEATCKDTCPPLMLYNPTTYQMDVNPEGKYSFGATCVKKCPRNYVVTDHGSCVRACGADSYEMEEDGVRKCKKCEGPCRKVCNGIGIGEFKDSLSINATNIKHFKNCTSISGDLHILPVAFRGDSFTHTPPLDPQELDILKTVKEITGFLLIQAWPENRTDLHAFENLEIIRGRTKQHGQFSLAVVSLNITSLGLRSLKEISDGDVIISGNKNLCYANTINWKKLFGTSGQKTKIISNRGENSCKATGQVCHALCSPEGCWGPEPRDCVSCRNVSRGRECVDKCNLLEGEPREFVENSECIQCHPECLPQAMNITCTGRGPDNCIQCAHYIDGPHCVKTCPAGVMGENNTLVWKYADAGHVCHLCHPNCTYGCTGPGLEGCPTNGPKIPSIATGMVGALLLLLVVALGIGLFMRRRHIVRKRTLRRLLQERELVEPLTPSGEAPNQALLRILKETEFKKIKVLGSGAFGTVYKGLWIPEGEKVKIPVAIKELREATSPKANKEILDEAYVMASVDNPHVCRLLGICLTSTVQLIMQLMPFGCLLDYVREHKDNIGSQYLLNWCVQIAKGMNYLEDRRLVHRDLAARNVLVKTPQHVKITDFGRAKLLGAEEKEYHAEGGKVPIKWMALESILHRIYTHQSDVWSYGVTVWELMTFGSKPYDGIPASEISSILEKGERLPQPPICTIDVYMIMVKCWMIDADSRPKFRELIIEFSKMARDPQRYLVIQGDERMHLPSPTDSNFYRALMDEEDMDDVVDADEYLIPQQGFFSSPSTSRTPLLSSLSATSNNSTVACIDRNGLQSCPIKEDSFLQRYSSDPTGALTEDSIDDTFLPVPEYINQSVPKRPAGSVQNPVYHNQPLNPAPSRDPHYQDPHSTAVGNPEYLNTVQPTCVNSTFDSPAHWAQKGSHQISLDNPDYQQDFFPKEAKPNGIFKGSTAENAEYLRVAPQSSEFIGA

Structure (SMILES) | IC50 [1] [nM] | IC50 [2] [nM] | IC50 [3] [nM] | IC50 [4] [nM] | IC50 [5] [nM] | IC50 [6] [nM]
CCN(c1c(Nc2nc(Nc3cc(C)c(N4CCC(N5CCN(C)CC5)CC4)nc3OC)ncc2Cl)ccc2nccnc12)S(C)(=O)=O [Compound I-226] | 500 to 2500 | 500 to 2500 | 500 to 2500 | 50 to 500 | 500 to 2500 | 50 to 500
CCc1cc(Nc2ncc(Cl)c(Nc3ccc4nccnc4c3N(C)S(=O)(=O)CC)n2)c(OC)nc1N1CCC(N2CCN(C)CC2)CC1 [Compound I-234] | 50 to 500 | ≤ 50 | 50 to 500 | ≤ 50 | ≤ 50 | ≤ 50
CCS(=O)(=O)N(C)c1c(Nc2nc(Nc3cc(CC4CC4)c(N4CCC(N5CCN(C)CC5)CC4)cc3OC)ncc2Cl)ccc2nccnc12 [Compound I-235] | 50 to 500 | 50 to 500 | 50 to 500 | ≤ 50 | ≤ 50 | ≤ 50
COc1cc(N2CCC(N3CCN(C)CC3)CC2)ccc1Nc1ncc(Cl)c(Nc2ccc3nccnc3c2N(C)S(=O)(=O)C2CC2)n1 [Compound I-237] | 50 to 500 | 50 to 500 | 50 to 500 | 50 to 500 | 50 to 500 | 50 to 500
COc1cc(N2CCC(N3CCN(C)CC3)CC2)c(CC2CC2)cc1Nc1ncc(Cl)c(Nc2ccc3nccnc3c2N(C)S(=O)(=O)C2CC2)n1 [Compound I-238] | 50 to 500 | 50 to 500 | 50 to 500 | 50 to 500 | ≤ 50 | 50 to 500
COc1nc(N2CCC(N3CCN(C)CC3)CC2)ccc1Nc1ncc(Cl)c(Nc2ccc3nccnc3c2N(C2CC2)S(C)(=O)=O)n1 [Compound I-239] | 50 to 500 | 50 to 500 | 50 to 500 | 50 to 500 | ≤ 50 | 50 to 500

More lines, now with the values ahead:

IC50 [1] [nM] | IC50 [2] [nM] | IC50 [3] [nM] | IC50 [4] [nM] | IC50 [5] [nM] | IC50 [6] [nM] | Structure (SMILES)
50 to 500 | ≤ 50 | ≤ 50 | ≤ 50 | ≤ 50 | ≤ 50 | CCc1cc(Nc2ncc(Cl)c(Nc3ccc4nccnc4c3N(CC)S(C)(=O)=O)n2)c(OC)nc1N1CCC(N2CCN(C)CC2)CC1 [Compound I-227]
50 to 500 | ≤ 50 | 50 to 500 | ≤ 50 | ≤ 50 | ≤ 50 | C=Cc1cc(Nc2ncc(Cl)c(Nc3ccc4nccnc4c3N(CC)S(C)(=O)=O)n2)c(OC(F)(F)F)cc1N1CCC(N2CCN(C)CC2)CC1 [Compound I-228]
50 to 500 | ≤ 50 | 50 to 500 | ≤ 50 | ≤ 50 | 50 to 500 | CCN(c1c(Nc2nc(Nc3cc(CC4CC4)c(N4CCC(N5CCN(C)CC5)CC4)cc3OC)ncc2Cl)ccc2nccnc12)S(C)(=O)=O [Compound I-229]
≤ 50 | ≤ 50 | ≤ 50 | ≤ 50 | ≤ 50 | ≤ 50 | CCN(c1c(Nc2nc(Nc3cc(C)c(N4CCC(N(C)C)CC4)cc3OC)ncc2Cl)ccc2nccnc12)S(C)(=O)=O [Compound I-230]
≤ 50 | ≤ 50 | ≤ 50 | ≤ 50 | ≤ 50 | 50 to 500 | CCN(c1c(Nc2nc(Nc3cc(C)c(N4CCN(C)CC4)cc3OC)ncc2Cl)ccc2nccnc12)S(C)(=O)=O [Compound I-231]
≤ 50 | ≤ 50 | ≤ 50 | ≤ 50 | ≤ 50 | ≤ 50 | CCc1cc(Nc2ncc(Cl)c(Nc3ccc4nccnc4c3N(CC)S(C)(=O)=O)n2)c(OC)cc1N1CCN(C)CC1 [Compound I-232]
≤ 50 | ≤ 50 | ≤ 50 | ≤ 50 | ≤ 50 | ≤ 50 | CCN(c1c(Nc2nc(Nc3cc(C)c(N4CCC(N(C)C)C4)cc3OC)ncc2Cl)ccc2nccnc12)S(C)(=O)=O (stereo not drawn) [Compound I-233]
≤ 50 | ≤ 50 | ≤ 50 | ≤ 50 | ≤ 50 | ≤ 50 | CCc1cc(Nc2ncc(Cl)c(Nc3ccc4nccnc4c3N(C)S(=O)(=O)CC)n2)c(OC)cc1N1CCN(C)CC1 [Compound I-236]
